# Patent US20230066946A1, “1,5-DIPHENYLPYRAZOLYL-3-OXYALKYL ACIDS AND 1-PHENYL-5-THIENYLPYRAZOLYL-3-OXYALKYL ACIDS AND THE USE THEREOF FOR CONTROL OF UNWANTED PLANT GROWTH” (Bayer Aktiengesellschaft, priority 2019, published 2023)
# How the values were obtained:
# MATIN = assay: Post-emergence herbicidal action against MATIN; assay type: in vivo, Matricaria inodora; conditions: 1280 g/ha, visual rating about 3 weeks after treatment
# Method: (§1) [table] Seeds of mono- and dicotyledonous weed plants are placed in plastic pots in sandy loam soil (twin sowing with one species each of mono- or dicotyledonous weed plants per pot), covered with soil and cultivated in a greenhouse under controlled growth conditions. 2 to 3 weeks after sowing, the test plants are treated at the one-leaf stage. The compounds of the invention, formulated in the form of wettable powders (WP) or as emulsion concentrates (EC), are applied to the green parts of the plants as aqueous suspension or emulsion with addition of 0.5% additive at a water application rate equivalent to 600 litres per hectare. After the test plants have been kept in the greenhouse under optimum growth conditions for about 3 weeks, the activity of the preparations is rated visually in comparison to untreated controls. For example, 100% activity=the plants have died, 0% activity=like control plants. Tables 5.1-5.16 below show the effects of selected compounds of the general formula (I) according to Tables 1 to 3 on various harmful plants at an application rate corresponding to 1280 or 320 g/ha, which have been obtained by the aforementioned experimental method.
# AMARE [1] = assay: Post-emergence herbicidal action against AMARE; assay type: in vivo, Amaranthus retroflexus; conditions: 1280 g/ha, visual rating about 3 weeks after treatment
# Method: as §1
# STEME [2] = assay: Pre-emergence herbicidal action against STEME; assay type: in vivo, Stellaria media; conditions: 1280 g/ha, scored visually after about 3 weeks vs untreated controls
# Excerpt: (§2) Seeds of mono- and dicotyledonous weed plants are placed in plastic pots in sandy loam soil (doubly sown with one species each of mono- or dicotyledonous weed plants per pot) and covered with soil. The compounds of the invention, formulated in the form of wettable powders (WP) or as emulsion concentrates (EC), are then applied onto the surface of the covering soil as aqueous suspension or emulsion with addition of 0.5% additive at a water application rate equivalent to 600 litres per hectare. After the treatment, the pots are placed in a greenhouse and kept under good growth conditions for the trial plants. After about 3 weeks, the effect of the preparations is scored visually in comparison with untreated controls as percentages. For example, 100% activity=the plants have died, 0% activity=like control plants. [table] Tables 4.1-4.15 below show the effects of selected compounds of the general formula (I) according to Tables 1 to 3 on various harmful plants at an application rate corresponding to 1280 or 320 g/ha, which have been obtained by the aforementioned experimental method.
# SETVI = assay: Pre-emergence herbicidal action against SETVI; assay type: in vivo, Setaria viridis; conditions: 1280 g/ha, scored visually after about 3 weeks vs untreated controls
# Excerpt: as §2
# AMARE [3] = assay: Pre-emergence herbicidal action against AMARE; assay type: in vivo, Amaranthus retroflexus; conditions: 1280 g/ha, scored visually after about 3 weeks vs untreated controls
# Excerpt: as §2
# STEME [4] = assay: Post-emergence herbicidal action against STEME; assay type: in vivo, Stellaria media; conditions: 1280 g/ha, visual rating about 3 weeks after treatment
# Method: as §1
Structure (SMILES),Post-emergence action against MATIN in % (MATIN),Post-emergence action against AMARE in % (AMARE [1]),Pre-emergence action against STEME in % (STEME [2]),Pre-emergence action against SETVI in % (SETVI),Pre-emergence action against AMARE in % (AMARE [3]),Post-emergence action against STEME in % (STEME [4])
O=C(O)COc1nn(-c2cccc(F)c2)c(-c2ccccc2)c1[N+](=O)[O-] [I-129],100%,100%,100%,100%,100%,
CCCN(CCC)CCC.O=C(O)COc1nn(-c2cccc(F)c2)c(-c2ccccc2)c1I [II-07],,,90%,,90%,
CCOC(=O)COc1nn(-c2ccc(Cl)cc2)c(-c2ccc(F)cc2)c1Br [I-078],,100%,,100%,90%,
CC#CCNC(=O)COc1nn(-c2ccc(F)cc2)c(-c2cccc(F)c2)c1Br [III-017],,100%,100%,100%,100%,
COC(=O)COc1nn(-c2ccccc2F)c(-c2ccc(F)s2)c1Br [I-095],100%,100%,100%,100%,100%,
CCOC(=O)COc1nn(-c2ccc(Cl)cc2F)c(-c2ccc(F)cc2Cl)c1Br [I-155],,,100%,,90%,
"COC(=O)COc1nn(-c2ccccc2F)c(-c2ccc(F)s2)c1Cl [I-094, Methyl {[4-chloro-1-(2-fluorophenyl)-5-(5-fluoro-2-thienyl)-1H-pyrazol-3-yl]oxy}acetate]",,100%,100%,100%,100%,
CC(C)(C)N.O=C(O)COc1nn(-c2cccc(F)c2)c(-c2ccccc2)c1I [II-09],,,100%,,90%,100%
COC(=O)CNC(=O)COc1nn(-c2cccc(F)c2)c(-c2ccccc2)c1[N+](=O)[O-] [III-029],,,,,90%,
CCOC(=O)COc1nn(-c2ccccc2OC)c(-c2ccc(F)cc2F)c1Br [I-091],,100%,,90%,100%,
O=C(O)COc1nn(-c2cccc(F)c2)c(-c2ccccc2)c1Br [I-127],90%,90%,100%,100%,100%,
O=C(COc1nn(-c2ccc(F)cc2)c(-c2cccc(F)c2)c1Cl)NCC1CC1 [III-025],,90%,100%,,,100%
O=C(O)COc1nn(-c2cccc(F)c2)c(-c2ccccc2)c1I [I-128],,90%,90%,,100%,
CCNC.O=C(O)COc1nn(-c2cccc(F)c2)c(-c2ccccc2)c1I [II-08],,,,,,90%
CCOC(=O)COc1nn(-c2ccc(Cl)cc2F)c(-c2ccc(F)cc2)c1Br [I-156],90%,100%,100%,90%,100%,
"COC(=O)CNC(=O)C(C)Oc1nn(-c2ccccc2)c(-c2ccc(F)cc2)c1Br (centres unmarked) [III-056, Methyl N-(2-{[4-bromo-5-(4-fluorophenyl)-1-phenyl-1H-pyrazol-3-yl]oxy}propanoyl)glycinate]",90%,,100%,90%,100%,
CCN(CC)CC.O=C(O)COc1nn(-c2cccc(F)c2)c(-c2ccccc2)c1I [II-14],,,,,100%,

Structure (SMILES),Post-emergence action against MATIN in % (MATIN),Post-emergence action against AMARE in % (AMARE [1]),Pre-emergence action against STEME in % (STEME [2]),Pre-emergence action against SETVI in % (SETVI),Pre-emergence action against AMARE in % (AMARE [3]),Post-emergence action against STEME in % (STEME [4])
CCOC(=O)COc1nn(-c2ccc(F)cc2)c(-c2ccc(F)cc2F)c1Br [I-086],,100%,90%,90%,100%,
COC(=O)COc1nn(-c2ccccc2F)c(-c2ccc([N+](=O)[O-])cc2)c1[N+](=O)[O-] [I-099],,90%,,,90%,
O=C(COc1nn(-c2ccc(F)cc2)c(-c2cccc(F)c2)c1I)OCc1ccccc1 [I-124],90%,,100%,100%,,
CCOC(=O)COc1nn(-c2ccc(Cl)cc2F)c(-c2ccc(F)cc2F)c1Br [I-150],,,100%,,,100%
COC(=O)COc1nn(-c2ccc(Cl)c(Cl)c2)c(-c2ccc(F)c(F)c2)c1Cl [I-027],,80%,,,,
COC(=O)C(C)(C)Oc1nn(-c2ccccc2)c(-c2ccc(F)cc2)c1Br [I-135],,,100%,,,
COC(=O)COc1nn(-c2ccc(F)cc2)c(-c2cccc(F)c2)c1I [I-109],,100%,100%,,,90%
O=C(COc1nn(-c2ccccc2)c(-c2ccc(F)cc2)c1Br)OCc1ccccc1 [I-112],,,100%,,100%,
COC(=O)COc1nn(-c2ccc(F)cc2)c(-c2cccc(F)c2)c1[N+](=O)[O-] [I-108],,,,100%,90%,
COC(=O)COc1nn(-c2ccc(C)cc2)c(-c2cccc(F)c2)c1C#N [I-020],,,80%,,,
CCOC(=O)COc1nn(-c2c(F)cccc2F)c(-c2ccc(F)c(F)c2)c1[N+](=O)[O-] [I-144],,,,100%,100%,
CCCN.O=C(O)COc1nn(-c2cccc(F)c2)c(-c2ccccc2)c1I [II-06],,,90%,,90%,100%
C=CCNC(=O)COc1nn(-c2ccc(F)cc2)c(-c2cccc(F)c2)c1I [III-008],,,100%,,,100%
CCOC(=O)COc1nn(-c2ccccc2OC)c(-c2ccccc2)c1Br [I-092],,100%,100%,100%,100%,
O=C(O)COc1nn(-c2ccc(F)cc2)c(-c2cccc(F)c2)c1I [I-118],,,,90%,100%,
O=C(COc1nn(-c2ccc(F)cc2)c(-c2cccc(F)c2)c1Br)NC1CC1 [III-018],,100%,100%,90%,90%,
